Results published in patent US8569349B2, “Therapeutic compounds” (Allergan, Inc., priority 2008, dated 2013).

Test system: lashes and adjacent hairs of the eyelids
Assay: Observation of lashes and adjacent hairs in glaucoma patients taking bimatoprost in only one eye
Assay type: in vivo
Description: In the course of treating patients having glaucoma, treatment may only be appropriate in one eye. […] The lash appearance on the lids of the treated eyes would have appeared quite attractive if it represented a bilateral phenomenon. As a result of its asymmetric nature, the long lashes on one side could be construed as disturbing from a cosmetic standpoint. A systemic examination was preformed as a result of the asymmetric phenomenon. It soon became apparent that this altered appearance was not an isolated finding. […] Definite differences could be identified to varying degrees in the lashes and adjacent hairs of all patients who were taking the drug on a unilateral basis for longer than 6 months.
The changes in the lashes were apparent on gross inspection in several patients once attention was focused on the issue. In those with light colored hair and lashes, the differences were only seen easily with the aid of the high magnification and lighting capabilities of the slit lamp biomicroscope. In the course of glaucoma follow-up examination, attention is generally immediately focused on the eye itself. As a result of the high power magnification needed only one eye is seen at a time and the eye is seen at a high enough power that the lashes are not in focus. […]

**Q.** `CCNC(=O)CCC/C=C\C[C@@H]1[C@@H](/C=C/[C@@H](O)CCc2ccccc2)[C@H](O)C[C@@H]1O` [bimatoprost] was tested. Which “lashes in the treated eye compared with the non-treated eye” value (glaucoma patient treated in one eye) did it give?
**A.** The value was “longer, thicker, and fuller”.

**Q.** And the “hair growth in treated versus control areas” value (multiple parameters of hair appearance, many subjects)?
**A.** The value was “stimulated”.
